Experimental data from patent US9556199B2, “Thieno[3,2-d]pyrimidines derivatives for the treatment of viral infections” (Janssen Sciences Ireland UC, priority 2013, dated 2017).

How the values were obtained:
Format in all cases: cell-based
[1] = test system: interferon-stimulated responsive elements (ISRE); assay: Activation of ISRE promoter elements in HEK-ISREluc cells by conditioned media from compound-treated PBMC; conditions: lowest effective concentration applied to PBMCs, supernatant transferred to HEK-ISREluc cells, 24 hours, read-out: HEK-ISRE luc (LEC)
Method: The potential of compounds to induce IFN-I was also evaluated by measuring the activation of interferon-stimulated responsive elements (ISRE) by conditioned media from PBMC. The ISRE element of sequence GAAACTGAAACT (SEQ ID NO: 1) is highly responsive to the STAT1-STAT2-IRF9 transcription factor, activated upon binding of IFN-I to their receptor IFNAR (Clontech, PT3372-5W). The plasmid pISRE-Luc from Clontech (ref. 631913) contains 5 copies of this ISRE element, followed by the firefly luciferase ORF. A HEK293 cell line stably transfected with pISRE-Luc (HEK-ISREluc) was established to profile the conditioned PBMC cell culture media.
Briefly, PBMCs were prepared from buffy coats of at least two donors using a standard Ficoll centrifugation protocol. Isolated PBMCs were resuspended in RPMI medium supplemented with 10% human AB serum and 2×10^5 cells/well were dispensed into 384-well plates containing compounds (70 μL total volume). After overnight incubation, 10 μL of supernatant was transferred to 384-well plates containing 5×10^3 HEK-ISREIuc cells/well in 30 μL (plated the day before). Following 24 hours of incubation, activation of the ISRE elements was measured by assaying luciferase activity using 40 μL/well Steady Lite Plus substrate (Perkin Elmer) and measured with ViewLux ultraHTS microplate imager (Perkin Elmer). The stimulating activity of each compound on the HEK-ISREluc cells was reported as LEC value, defined as the compound concentration applied to the PBMCs resulting in a luciferase activity at least two fold above the standard deviation of the assay. The LEC in turn indicates the degree of ISRE activation on transfer of a defined amount of PBMC culture medium. Recombinant interferon α-2a (Roferon-A) was used as a standard control compound.

human TLR7 = target: T1, human TLR7 (Homo sapiens, UniProt Q9NYK1); assay: TLR7 cellular NFκB-luc reporter assay in transiently transfected HEK293 cells; conditions: lowest effective concentration, 6 hours incubation
T1 construct: expressed in transfected cells; host or cells: HEK293
T1 sequence (Q9NYK1 27-1049): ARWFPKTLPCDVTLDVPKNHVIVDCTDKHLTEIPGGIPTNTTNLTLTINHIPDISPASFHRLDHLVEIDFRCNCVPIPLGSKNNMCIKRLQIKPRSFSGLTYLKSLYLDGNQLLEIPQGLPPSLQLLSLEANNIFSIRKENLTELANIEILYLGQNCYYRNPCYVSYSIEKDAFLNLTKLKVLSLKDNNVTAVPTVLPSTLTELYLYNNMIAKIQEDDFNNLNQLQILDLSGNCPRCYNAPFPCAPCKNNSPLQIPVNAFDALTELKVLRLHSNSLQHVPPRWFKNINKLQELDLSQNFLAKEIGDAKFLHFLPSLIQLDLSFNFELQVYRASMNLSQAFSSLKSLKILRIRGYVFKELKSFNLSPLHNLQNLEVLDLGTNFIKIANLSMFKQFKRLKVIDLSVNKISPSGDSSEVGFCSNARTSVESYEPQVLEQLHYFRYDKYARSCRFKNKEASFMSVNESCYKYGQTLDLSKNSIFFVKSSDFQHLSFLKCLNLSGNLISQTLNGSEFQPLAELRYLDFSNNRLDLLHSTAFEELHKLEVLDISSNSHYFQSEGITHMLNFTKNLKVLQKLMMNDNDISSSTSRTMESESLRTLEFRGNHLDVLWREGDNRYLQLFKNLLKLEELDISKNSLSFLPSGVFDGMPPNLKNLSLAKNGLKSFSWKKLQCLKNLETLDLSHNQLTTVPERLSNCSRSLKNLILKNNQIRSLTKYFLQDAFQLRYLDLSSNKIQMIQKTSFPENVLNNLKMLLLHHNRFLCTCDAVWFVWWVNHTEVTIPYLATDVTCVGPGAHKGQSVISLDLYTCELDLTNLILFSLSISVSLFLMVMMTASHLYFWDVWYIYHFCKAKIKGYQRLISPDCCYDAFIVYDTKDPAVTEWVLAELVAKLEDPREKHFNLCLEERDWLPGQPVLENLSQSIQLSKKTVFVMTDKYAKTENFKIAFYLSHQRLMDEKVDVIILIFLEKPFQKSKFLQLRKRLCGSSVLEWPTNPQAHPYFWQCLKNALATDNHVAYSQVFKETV
Method: (§1) The ability of compounds to activate human TLR7 and/or TLR8 was assessed in a cellular reporter assay using HEK293 cells transiently transfected with a TLR7 or TLR8 expression vector and NFκB-luc reporter construct.
(§2) Briefly, HEK293 cells were grown in culture medium (DMEM supplemented with 10% FCS and 2 mM Glutamine). For transfection of cells in 15 cm dishes, cells were detached with Trypsin-EDTA, transfected with a mix of CMV-TLR7 or TLR8 plasmid (1700 ng), NFκB-luc plasmid (850 ng) and a transfection reagent and incubated for 48 h at 37° C. in a humidified 5% CO2 atmosphere. Transfected cells were then washed in PBS, detached with Trypsin-EDTA and resuspended in medium to a density of 1.25×10^5 cells/mL. Forty microliters of cells were then dispensed into each well in 384-well plates, where 200 nL of compound in 100% DMSO was already present. Following 6 hours incubation at 37° C., 5% CO2, the luciferase activity was determined by adding 15 μL of Steady Lite Plus substrate (Perkin Elmer) to each well and readout performed on a ViewLux ultraHTS microplate imager (Perkin Elmer). Dose response curves were generated from measurements performed in quadruplicates. Lowest effective concentrations (LEC) values, defined as the concentration that induces an effect which is at least two fold above the standard deviation of the assay, were determined for each compound.

human TLR8 = target: T2, human TLR8 (Homo sapiens, UniProt Q9NR97); assay: TLR8 cellular NFκB-luc reporter assay in transiently transfected HEK293 cells; conditions: lowest effective concentration, 6 hours incubation
T2 construct: expressed in transfected cells; host or cells: HEK293
T2 sequence (Q9NR97 27-1041): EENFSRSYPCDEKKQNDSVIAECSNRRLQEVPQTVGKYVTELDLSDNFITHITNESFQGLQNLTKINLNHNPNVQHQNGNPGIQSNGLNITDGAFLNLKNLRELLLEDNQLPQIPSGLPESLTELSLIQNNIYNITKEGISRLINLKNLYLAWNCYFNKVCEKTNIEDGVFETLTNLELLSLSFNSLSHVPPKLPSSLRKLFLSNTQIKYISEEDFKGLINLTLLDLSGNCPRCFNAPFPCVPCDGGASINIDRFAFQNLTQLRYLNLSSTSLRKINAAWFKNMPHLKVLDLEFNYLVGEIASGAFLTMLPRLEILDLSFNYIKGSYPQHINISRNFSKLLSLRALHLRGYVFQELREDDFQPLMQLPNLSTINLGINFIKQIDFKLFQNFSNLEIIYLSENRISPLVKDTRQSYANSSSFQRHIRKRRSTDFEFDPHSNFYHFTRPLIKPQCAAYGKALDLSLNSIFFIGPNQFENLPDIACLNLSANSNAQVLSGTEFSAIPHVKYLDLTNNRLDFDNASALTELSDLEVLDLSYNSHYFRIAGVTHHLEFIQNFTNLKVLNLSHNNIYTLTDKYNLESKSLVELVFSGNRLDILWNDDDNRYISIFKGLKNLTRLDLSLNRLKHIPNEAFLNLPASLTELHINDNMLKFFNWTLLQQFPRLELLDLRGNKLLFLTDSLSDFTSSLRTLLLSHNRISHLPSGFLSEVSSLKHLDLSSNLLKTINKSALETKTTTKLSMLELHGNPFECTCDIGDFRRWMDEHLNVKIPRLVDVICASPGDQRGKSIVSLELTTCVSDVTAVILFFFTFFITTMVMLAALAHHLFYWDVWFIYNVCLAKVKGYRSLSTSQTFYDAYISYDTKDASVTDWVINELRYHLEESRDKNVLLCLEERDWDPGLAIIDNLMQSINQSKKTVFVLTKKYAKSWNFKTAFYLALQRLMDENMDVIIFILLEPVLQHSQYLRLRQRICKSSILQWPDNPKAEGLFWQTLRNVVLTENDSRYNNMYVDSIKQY
Method: as §1, §2

| Human TLR 7 (LEC) (human TLR7) | Human TLR 8 (LEC) (human TLR8) | Compound | minimal effective concentration [1] |
| --- | --- | --- | --- |
| 1.0 µM | 0.5 µM | CCCCNc1nc(N)nc2cc(C)sc12 [Compound 1] | 0.1 µM |
| 2.2 µM | 1.0 µM | CCCCNc1nc(N)nc2c(C)csc12 [Compound 2] | 0.6 µM |
| 1.2 µM | 1.2 µM | CCCCNc1nc(N)nc2cc(C(C)(C)C)sc12 [Compound 3] | 0.4 µM |
| 0.5 µM | 0.03 µM | CCCC[C@@H](CO)Nc1nc(N)nc2ccsc12 [Compound 4] | 0.04 µM |
| 2.7 µM | 0.2 µM | CCC[C@@H](CO)Nc1nc(N)nc2ccsc12 [Compound 5] | 0.4 µM |
| >25 µM | 0.5 µM | CCCC[C@H](CO)Nc1nc(N)nc2ccsc12 [Compound 6] | 0.6 µM |
| 1.1 µM | 0.7 µM | CCCCNc1nc(N)nc2ccsc12 [Compound 7] | 0.3 µM |
| 1.2 µM | 0.7 µM | CCCC[C@@H](CCO)Nc1nc(N)nc2ccsc12 [Compound 8] | 0.3 µM |
| 3.3 µM | 2.5 µM | CCCC(C)Nc1nc(N)nc2ccsc12 (stereo not drawn) [Compound 9] | 3.8 µM |
| 6.1 µM | 2.7 µM | CCC[C@H](Nc1nc(N)nc2ccsc12)C(=O)OC [Compound 10] | 0.8 µM |
| 2.1 µM | 3.9 µM | CCCCCNc1nc(N)nc2ccsc12 [Compound 11] | 1.2 µM |
| >25 µM | 7.2 µM | CCC[C@H](CO)Nc1nc(N)nc2ccsc12 [Compound 12] | 21 µM |
| 12 µM | 0.2 µM | CCC[C@@H](CO)Nc1nc(N)nc2c(C)csc12 [Compound 13] | 0.6 µM |
| 6.8 µM | 1.9 µM | CCCCCNc1nc(N)nc2c(C)csc12 [Compound 14] | 3.2 µM |
| >25 µM | 3.5 µM | CCC[C@H](Nc1nc(N)nc2c(C)csc12)C(=O)OC [Compound 15] | 2.6 µM |
| 5.2 µM | 1.6 µM | CCC[C@@H](CCO)Nc1nc(N)nc2c(C)csc12 [Compound 16] | 0.7 µM |
| 3.7 µM | 0.3 µM | CCCC[C@@H](CO)Nc1nc(N)nc2c(C)csc12 [Compound 17] | 0.4 µM |
| >25 µM | 0.8 µM | CCCC[C@H](CO)Nc1nc(N)nc2c(C)csc12 [Compound 18] | 1.7 µM |
| 3.9 µM | 1.6 µM | CCCC[C@@H](CCO)Nc1nc(N)nc2c(C)csc12 [Compound 19] | 0.6 µM |
| >25 µM | 6.9 µM | CCCC(C)Nc1nc(N)nc2cc(C)sc12 (stereo not drawn) [Compound 20] | 10.1 µM |
| 10.4 µM | 0.6 µM | CCCC[C@H](CO)Nc1nc(N)nc2cc(C)sc12 [Compound 21] | – |
| 2.9 µM | 0.2 µM | CCCC[C@@H](CO)Nc1nc(N)nc2cc(C)sc12 [Compound 22] | – |
| 2.7 µM | 2.6 µM | CCCC[C@@H](CO)Nc1nc(N)nc2cc(C(C)(C)C)sc12 [Compound 23] | – |
